Key:
Format in all cases: in vivo
[1] = tested on: yellow fever mosquito (Aedes aegypti); assay: whole plant or invertebrate; conditions: 48 h, larval mortality, 2 days, read-out: mortality in comparison with untreated controls
Experimental: (§1) If not otherwise specified, the test solutions are prepared as follows: The active compound is dissolved at the desired concentration in a mixture of 1:1 (vol:vol) distilled water:acteone. The test solution is prepared at the day of use. Test solutions are prepared in general at concentrations of 2500 ppm, 1415 ppm, 828 ppm, 800 ppm and 300 ppm (wt/vol).
For evaluating control of yellow fever mosquito (Aedes aegypti) the test unit consisted of 96-well-microtiter plates containing 200 μl of tap water per well and 5-15 freshly hatched A. aegypti 5 larvae. The active compounds were formulated using a solution containing 75% (v/v) water and 25% (v/v) DMSO. Different concentrations of formulated compounds or mixtures were sprayed onto the insect diet at 2.5 μl, using a custom-built micro atomizer, at two replications. After application, microtiter plates were incubated at 28±1° C., 80±5% R^H for 2 days. Larval 10 mortality was then visually assessed.

[2] = tested on: boll weevil (Anthonomus grandis); assay: Boll weevil (Anthonomus grandis) microtiter insect-diet test; conditions: 120 h, read-out: mortality in comparison with untreated controls
Experimental: as §1
(§2) For evaluating control of boll weevil (Anthonomus grandis) the test unit consisted of 96-well-microtiter plates containing an insect diet and 5-10 A. grandis eggs. The compounds were formulated using a solution containing 75% v/v water and 25% v/v DMSO. Different concentrations of formulated compounds were sprayed onto the insect diet at 5 μl, using a custom built micro atomizer, at two replications. After application, microtiter plates were incubated at about 25±1° C. and about 75±5% relative humidity for 5 days. Egg and larval mortality was then visually assessed.

[3] = tested on: vetch aphid (Megoura viciae); assay: Vetch aphid (Megoura viciae) broad bean leaf disk test, contact or systemic; conditions: foliar, 120 h, read-out: mortality in comparison with untreated controls
Experimental: as §1
For evaluating control of vetch aphid (Megoura viciae) through contact or systemic means the test unit consisted of 24-well-microtiter plates containing broad bean leaf disks.
The compounds were formulated using a solution containing 75% v/v water and 25% v/v DMSO. Different concentrations of formulated compounds were sprayed onto the leaf disks at 2.5 μl, using a custom built micro atomizer, at two replications. After application, the leaf disks were air-dried and 5-8 adult aphids placed on the leaf disks inside the microtiter plate wells. The aphids were then allowed to suck on the treated leaf disks and incubated at about 23±1° C. and about 50±5% relative humidity for 5 days. Aphid mortality and fecundity was then visually assessed.

[4] = tested on: green peach aphid (Myzus persicae); assay: Green peach aphid (Myzus persicae) systemic test, artificial diet under membrane; conditions: 72 h, read-out: mortality in comparison with untreated controls
Experimental: as §1
For evaluating control of green peach aphid (Myzus persicae) through systemic means the test unit consisted of 96-well-microtiter plates containing liquid artificial diet under an artificial membrane. The compounds were formulated using a solution containing 75% v/v water and 25% v/v DMSO. Different concentrations of formulated compounds were pipetted into the aphid diet, using a custom built pipetter, at two replications. After application, 5-8 adult aphids were placed on the artificial membrane inside the microtiter plate wells. The aphids were then allowed to suck on the treated aphid diet and incubated at about 23±1° C. and about 50±5% relative humidity for 3 days. Aphid mortality and fecundity was then visually assessed.

[5] = tested on: tobacco budworm (Heliothis virescens); assay: Tobacco budworm (Heliothis virescens) microtiter insect-diet test; conditions: 120 h, read-out: mortality in comparison with untreated controls
Experimental: as §1
as §2, with “of tobacco budworm (Heliothis virescens)” for “of boll weevil (Anthonomus grandis)”, “and 15-25 H. virescens” for “and 5-10 A. grandis”, “at 10” for “at 5”, “about 28±1°” for “about 25±1°”, “about 80±5%” for “about 75±5%”

[6] = tested on: Greenhouse Whitefly (Trialeurodes vaporariorum); assay: Greenhouse whitefly (Trialeurodes vaporariorum) egg plant leaf disk test; conditions: foliar, 144 h, read-out: mortality in comparison with untreated controls
Experimental: as §1
For evaluating control of Greenhouse Whitefly (Trialeurodes vaporariorum) the test unit consisted of 96-well-microtiter plates containing a leaf disk of egg plant leaf disk with white fly eggs. The compounds or mixtures were formulated using a solution containing 75% water and 25% DMSO. Different concentrations of formulated were sprayed onto the insect diet at 2.5 μl, using a custom-built micro atomizer, at two replications. After application, microtiter plates were incubated at 23±1° C., 65±5% R^H for 6 days. Mortality of hatched crawlers was then visually assessed.

SMILES	mortality at 2500 ppm [1] [%]	mortality at 800 ppm [2] [%]	mortality at 2500 ppm [3] [%]	mortality at 2500 ppm [4] [%]	mortality at 2500 ppm [5] [%]	mortality at 828 ppm [2] [%]	mortality at 2500 ppm [6] [%]	mortality at 800 ppm ([1]; 800 ppm) [%]	mortality at 800 ppm [4] [%]	mortality at 800 ppm [5] [%]
CCS(=O)(=O)c1c(-c2cn3c(=O)n(C)c(C(F)(F)F)cc3n2)nc2ccc(C(F)(F)F)cn12 [I.1, 2-[3-ethylsulfonyl-6-(trifluoromethyl)imidazo[1,2-a]pyridin-2-yl]-6-methyl-7-(trifluoromethyl)imidazo[1,2-c]pyrimidin-5-one]	≥ 75	> 75	> 75	> 75	> 75	–	–	–	–	–
CCS(=O)(=O)c1c(-c2cn3c(=O)n(C4CC4)c(C(F)(F)F)cc3n2)nc2ccccn12 [I.2, 6-cyclopropyl-2-[3-(ethanesulfonyl)imidazo[1,2-a]pyridin-2-yl]-7-(trifluoromethyl)imidazo[1,2-c]pyrimidin-5-one]	≥ 75	–	–	> 75	–	> 75	≥ 75	–	–	–
CCS(=O)(=O)c1c(-c2cn3c(=O)n(C4CC4)c(C(F)(F)F)cc3n2)nn2ccccc12 [I.11, 6-cyclopropyl-2-(3-ethylsulfonylpyrazolo[1,5-a]pyridin-2-yl)-7-(trifluoromethyl)imidazo[1,2-c]pyrimidin-5-one]	–	> 75	–	–	–	–	–	≥ 75	> 75	> 75
CCS(=O)(=O)c1c(-c2cn3c(=O)n(C)c(C(F)(F)F)cc3n2)nc2n1CCCC2 [I.13, 2-(3-ethylsulfonyl-5,6,7,8-tetrahydroimidazo[1,2-a]pyridin-2-yl)-6-methyl-7-(trifluoromethyl)imidazo[1,2-c]pyrimidin-5-one]	–	> 75	–	–	–	–	–	–	–	–

— US20220411428A1, “Pyrimidone Derivatives Containing Two Fused Bicyclic Rings” (priority 2019, published 2022)
